We go through 22 compounds from patent publication US8017612B2, “Piperazine compound and use thereof as a HCV polymerase inhibitor” (priority 2006, dated 2011).

The target in assay [1] is T1, HCV polymerase (NS5B) type 1a (Hepatitis C virus genotype 1a, UniProt P26664).
T1 construct: made in house; host or cells: Escherichia coli (by the 'similar method' of the 1b enzyme)
In words: Assay of enzyme (HCV polymerase) inhibitory activity, type 1a enzyme. Conditions: HCV polymerase inhibitory activity (IC50), 1a, type 1a enzyme 1.5 μg/ml, 25° C., 60 min. In kind it is biochemical, HCV type 1a (cloned from the blood of patients). The essentials:
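Patient-derived type 1a NS5B (C-terminal 47-aa deletion, His-tagged, E. coli-expressed) at 1.5 μg/ml was reacted with 5 μg/ml 3′UTR-containing substrate RNA, 50 μM ATP/GTP/CTP, 2 μM UTP plus [3H]UTP, pH 7.5, 25° C for 60 min. TCA-precipitated RNA radioactivity was counted; IC50 from ± compound.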

Assay [2] deals with T2, HCV polymerase (NS5B) type 1b (Hepatitis C virus genotype 1b, UniProt P26663).
T2 construct: a region encoding NS5B (J Virol 1991 March, 65(3), 1105-13, 544 amino acids after deletion of 47 amino acids on the C-terminal); 6xHis (C); made in house; host or cells: Escherichia coli
The assay can be described thus: Assay of enzyme (HCV polymerase) inhibitory activity, type 1b enzyme. In kind it is biochemical, HCV BK strain (type 1b). Conditions: HCV polymerase inhibitory activity (IC50), 1b, type 1b enzyme 0.5 μg/ml, 25° C., 60 min. The essentials:
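NS5B from HCV BK strain (type 1b), C-terminal 47 aa deleted, C-terminal His6-tagged, E. coli-expressed, 0.5 μg/ml, with ~450 nt substrate RNA carrying the 3′ UTR (polyU, 3′X) at 5 μg/ml. Incubation 60 min at 25 °C with 50 μM ATP/GTP/CTP, 2 μM UTP plus [3H]UTP, pH 7.5 Tris.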

Where a name gives a salt, the structure may show the parent alone. Bounds are passed on as bounds.

What is called IC50 is the concentration that gives 50% inhibition.

For `CC(=O)N1CCN(S(=O)(=O)c2ccc(Br)cc2F)[C@@H](C(=O)NCc2ccc(C(C)C)cc2)C1` [Example 419, (R)-4-acetyl-1-(4-bromo-2-fluoro-benzenesulfonyl)-piperazine-2-carboxylic acid 4-isopropyl-benzylamide], the IC50 in assay [1] and in assay [2] was 100 to 1000 nM throughout.
In the case of `COC(=O)c1nc(Cl)c(N2CCN(S(=O)(=O)c3ccc(C(F)(F)F)cc3)[C@@H](C(=O)NCc3ccc(C(C)C)cc3)C2)nc1N` [Example 420, (R)-6′-amino-3′-chloro-3-(4-isopropyl-benzylcarbamoyl)-4-(4-trifluoromethyl-benzenesulfonyl)-3,4,5,6-tetrahydro-2H-[1,2′]bipyrazinyl-5′-carboxylic acid methyl ester], the IC50 in assay [1] and in assay [2] was over 1000 nM each time.
As for `COC(=O)c1nc(Cl)c(N2CCN(S(=O)(=O)c3ccc(C(F)(F)F)cc3)[C@@H](C(=O)NCc3ccc(C(C)C)cc3)C2)nc1Br` [Example 421, (R)-6′-bromo-3′-chloro-3-(4-isopropyl-benzylcarbamoyl)-4-(4-trifluoromethyl-benzenesulfonyl)-3,4,5,6-tetrahydro-2H-[1,2′]bipyrazinyl-5′-carboxylic acid methyl ester], the IC50 in assay [1] and in assay [2] was over 1000 nM throughout.
`Cc1nc(N2CCN(S(=O)(=O)c3ccc(C(F)(F)F)cc3)[C@@H](C(=O)NCc3ccc(C(C)C)cc3)C2)c(C)nc1C(=O)O` [Example 422, (R)-3-(4-isopropyl-benzylcarbamoyl)-3′,6′-dimethyl-4-(4-trifluoromethyl-benzenesulfonyl)-3,4,5,6-tetrahydro-2H-[1,2′]bipyrazinyl-5′-carboxylic acid]: the IC50 in assay [1] and in assay [2] was over 1000 nM throughout.
Take `COC(=O)c1ncc(N2CCN(S(=O)(=O)c3ccc(C(F)(F)F)cc3)[C@@H](C(=O)NCc3ccc(C(C)C)cc3)C2)nc1N` [Example 423, (R)-6′-amino-3-(4-isopropyl-benzylcarbamoyl)-4-(4-trifluoromethyl-benzenesulfonyl)-3,4,5,6-tetrahydro-2H-[1,2′]bipyrazinyl-5′-carboxylic acid methyl ester]: the IC50 in assay [1] and in assay [2] was under 100 nM each time.
As to `CCN(C)c1ccc(CNC(=O)[C@H]2CN(c3nc(C)c(C(=O)O)s3)CCN2S(=O)(=O)c2ccc(OC(F)(F)F)cc2)cc1` [Example 424, 2-[(R)-3-[4-(ethyl-methyl-amino)-benzylcarbamoyl]-4-(4-trifluoromethoxy-benzenesulfonyl)-piperazin-1-yl]-4-methyl-thiazole-5-carboxylic acid], the IC50 in assay [1] and in assay [2] was under 100 nM throughout.
As to `CCN(CC)c1ccc(CNC(=O)[C@H]2CN(c3nc(C)c(C(=O)O)s3)CCN2S(=O)(=O)c2ccc(OC(F)(F)F)cc2)cc1` [Example 425, 2-[(R)-3-(4-diethylamino-benzylcarbamoyl)-4-(4-trifluoromethoxy-benzenesulfonyl)-piperazin-1-yl]-4-methyl-thiazole-5-carboxylic acid], the IC50 in assay [1] and in assay [2] was under 100 nM throughout.
In the case of `CC(C)c1ccc(CNC(=O)[C@H]2CN(c3cc(C(=O)O)[nH]n3)CCN2S(=O)(=O)c2ccc(C(F)(F)F)cc2)cc1` [Example 426, 5-[(R)-3-(4-isopropyl-benzylcarbamoyl)-4-(4-trifluoromethyl-benzenesulfonyl)-piperazin-1-yl]-2H-pyrazole-3-carboxylic acid], the IC50 is over 1000 nM in assay [1] and 100 to 1000 nM in assay [2].
`CC(C)c1ccc(CNC(=O)[C@H]2CN(c3n[nH]c(C(=O)O)c3Cl)CCN2S(=O)(=O)c2ccc(C(F)(F)F)cc2)cc1` [Example 427, 4-chloro-5-[(R)-3-(4-isopropyl-benzylcarbamoyl)-4-(4-trifluoromethyl-benzenesulfonyl)-piperazin-1-yl]-2H-pyrazole-3-carboxylic acid]: the IC50 in assay [1] and in assay [2] was over 1000 nM throughout.
For the compound `CC(=O)N1CCN(S(=O)(=O)c2ccc(CC3CC3)cc2)[C@@H](C(=O)NCc2ccc(C(C)C)cc2)C1` [Example 428, (R)-4-acetyl-1-(4-cyclopropylmethyl-benzenesulfonyl)-piperazine-2-carboxylic acid 4-isopropyl-benzylamide], the 50% inhibitory concentration (IC50) in assay [1] and in assay [2] was under 100 nM in each case.
In the case of `CCCc1ccc(S(=O)(=O)N2CCN(C(C)=O)C[C@@H]2C(=O)NCc2ccc(C(C)C)cc2)c(F)c1` [Example 429, (R)-4-acetyl-1-(2-fluoro-4-propyl-benzenesulfonyl)-piperazine-2-carboxylic acid 4-isopropyl-benzylamide], the IC50 in assay [1] and in assay [2] was under 100 nM throughout.
On to `CC(=O)N1CCN(S(=O)(=O)c2ccc(Br)cc2)[C@@H](C(=O)NCc2ccc(C(C)C)cc2)C1` [Example 430, (R)-4-acetyl-1-(4-bromo-benzenesulfonyl)-piperazine-2-carboxylic acid 4-isopropyl-benzylamide], for which the IC50 in assay [1] and in assay [2] was 100 to 1000 nM in each case.
For `COC(=O)c1cnc(N2CCN(S(=O)(=O)c3ccc(C(F)(F)F)cc3)[C@@H](C(=O)NCc3ccc(C(C)C)cc3)C2)c(C)n1` [Example 431, (R)-3-(4-isopropyl-benzylcarbamoyl)-3′-methyl-4-(4-trifluoromethyl-benzenesulfonyl)-3,4,5,6-tetrahydro-2H-[1,2′]bipyrazinyl-5′-carboxylic acid methyl ester], the IC50 in assay [1] and in assay [2] was 100 to 1000 nM each time.
As to `CCCc1ccc(CNC(=O)[C@H]2CN(c3cnc(C(=O)O)cn3)CCN2S(=O)(=O)c2ccc(OC(F)(F)F)cc2)c(C)c1` [Example 432, (R)-3-(2-methyl-4-propyl-benzylcarbamoyl)-4-(4-trifluoromethoxy-benzenesulfonyl)-3,4,5,6-tetrahydro-2H-[1,2′]bipyrazinyl-5′-carboxylic acid], the IC50 in assay [1] and in assay [2] was under 100 nM each time.
On to `CC(=O)N1CCN(S(=O)(=O)c2ccc(C(C)C)cc2)[C@@H](C(=O)NCCc2c[nH]cn2)C1` [Example 433, (R)-4-acetyl-1-(4-isopropyl-benzenesulfonyl)-piperazine-2-carboxylic acid [2-(1H-imidazol-4-yl)-ethyl]-amide hydrochloride], for which the IC50 in assay [1] and in assay [2] was over 1000 nM in each case.
`CCCc1ccc(S(=O)(=O)N2CCN(c3nc(C(=O)O)c(C)s3)C[C@@H]2C(=O)NCc2ccc(C(C)C)cc2)cc1` [Example 434, 2-[(R)-3-(4-isopropyl-benzylcarbamoyl)-4-(4-propyl-benzenesulfonyl)-piperazin-1-yl]-5-methyl-thiazole-4-carboxylic acid]: the IC50 in assay [1] and in assay [2] was under 100 nM in each case.
Consider `CCCc1ccc(CNC(=O)[C@H]2CN(c3cnc(C(=O)O)cn3)CCN2S(=O)(=O)c2ccc3c(c2)CCCCC3)cc1` [Example 435, (R)-3-(4-propyl-benzylcarbamoyl)-4-(6,7,8,9-tetrahydro-5H-benzenecycloheptene-2-sulfonyl)-3,4,5,6-tetrahydro-2H-[1,2′]bipyrazinyl-5′-carboxylic acid], for which the IC50 in assay [1] and in assay [2] was under 100 nM in each case.
Consider `CCCc1ccc(CNC(=O)[C@H]2CN(C(=O)Nc3ccncc3)CCN2S(=O)(=O)c2ccc(OC(F)(F)F)cc2)cc1` [Example 436, (R)-4-(4-trifluoromethoxy-benzenesulfonyl)-piperazine-1,3-dicarboxylic acid 3-(4-propyl-benzylamide) 1-pyridin-4-ylamide], for which the IC50 in assay [1] and in assay [2] was under 100 nM in each case.
With `CCCc1ccc(CNC(=O)[C@H]2CN(C(=O)Nc3nncs3)CCN2S(=O)(=O)c2ccc(OC(F)(F)F)cc2)cc1` [Example 437, (R)-4-(4-trifluoromethoxy-benzenesulfonyl)-piperazine-1,3-dicarboxylic acid 3-(4-propyl-benzylamide) 1-[1,3,4]thiadiazol-2-ylamide], the IC50 in assay [1] and in assay [2] was under 100 nM in each case.
In the case of `CCCc1ccc(CNC(=O)[C@H]2CN(c3cnc(C(=O)O)cn3)CCN2S(=O)(=O)c2ccc(CCC)s2)cc1` [Example 438, (R)-3-(4-propyl-benzylcarbamoyl)-4-(5-propyl-thiophene-2-sulfonyl)-3,4,5,6-tetrahydro-2H-[1,2′]bipyrazinyl-5′-carboxylic acid], the IC50 in assay [1] and in assay [2] was under 100 nM each time.
As for `CC(C)c1ccc(CNC(=O)[C@H]2CN(c3cc(C(=O)O)nn3C)CCN2S(=O)(=O)c2ccc(C(F)(F)F)cc2)cc1` [Example 439, 5-[(R)-3-(4-isopropyl-benzylcarbamoyl)-4-(4-trifluoromethyl-benzenesulfonyl)-piperazin-1-yl]-1-methyl-1H-pyrazole-3-carboxylic acid], the IC50 in assay [1] was over 1000 nM; in assay [2], 100 to 1000 nM.
As to `CCCc1ccc(CNC(=O)[C@H]2CN(c3cnc(C(=O)O)cn3)CCN2S(=O)(=O)c2ccc(CCC)cc2)cc1` [Example 440, (R)-4-(4-propyl-benzenesulfonyl)-3-(4-propyl-benzylcarbamoyl)-3,4,5,6-tetrahydro-2H-[1,2′]bipyrazinyl-5′-carboxylic acid], the IC50 in assay [1] and in assay [2] was under 100 nM throughout.
